Experimental data from patent publication US20100305055A1, “COMBINATIONS OF POLYENE FUNGICIDE WITH CATIONIC SURFACTANTS” (Laboratorios Miret, S.A., priority 2007, published 2010).
“Also recorded” adds a separate entry of the source. Blank lines part the entries; values can stand above or below the molecule they belong to.

Legend:
[1] = tested on: Cladosporium cladosporioides; assay: MIC and synergy index of natamycin/LAE solutions; format: cell-based
Procedure: (§1) In this example the influence of the synergism of combinations of LAE and natamycin in the inventive composition has been investigated.
(§2) For that purpose propylene glycol solutions with different concentrations of LAE and natamyin were prepared.
(§3) The effects of these preparations were investigated against the moulds Aspergillus niger, Penicillium caseicolum, Cladosporium cladosporioides and Rhizopus, the bacteria Escherichia coli (ATCC 8739), Salmonella typhimurium (ATCC 14028), Listeria monocytogenes (ATCC 15313), Bacillus subtilis (ATCC 6633) and the yeasts Candida albicans (ATCC 10231) and Saccharomyces cerevisiae (ATCC 9763).
(§4) The table indicates the MIC values found at different relationship between natamycin and LAE, whereby a value for natamycin: LAE 1:1 means the same concentration for both substances in the antimicrobial composition.
(§5) The interaction of the two components of the antimicrobial mixture is calculated according to the method described by Kull et al. (Kull F. C., Eisman P. C., Sylwestrowicz H. D. and Mayer R. L., Applied Microbiology, 1961; 6: 538-541). According to this method the so-called synergy index is calculated according to the following formula:
(§6) Synergy index SI=Qlae/QLAE+Qn/QN.
(§7) The elements used for the calculation of the synergy index according to the above formula have the following meaning: • Qlae=minimum inhibition concentration of LAE in the mixture of LAE and natamycin, • QLAE=minimum inhibition concentration of LAE as single antimicrobial without natamycin, • Qn=minimum inhibition concentration of natamycin in the mixture of LAE and natamycin and • QN=minimum inhibition concentration of natamycin as single antimicrobial without LAE.
(§8) All indicated symbols indicate a particular concentration leading to a particular end point, in this case the inhibition of growth of the microorganisms, so that the selected end point is in fact the minimal inhibitory concentration (MIC).
(§9) When the synergy index is 1, then there is an addition of the effects of the two components.
(§10) Qn: MIC of natamycin in the mixture of natamycin and LAE QN: MIC of natamycin alone Qlae: MIC of LAE in the mixture of natamycin and LAE QLAE: MIC of LAE alone

[2] = tested on: Candida albicans ATCC 10231; assay: MIC and synergy index of natamycin/LAE solutions; format: cell-based
Procedure: as §1, §2, §3, §4, §5, §6, §7, §8, §9, §10

[3] = tested on: Saccharomyces cerevisiae ATCC 9763; assay: MIC and synergy index of natamycin/LAE solutions; format: cell-based
Procedure: as §1, §2, §3, §4, §5, §6, §7, §8, §9, §10

Rhizopus = assay: MIC and synergy index of natamycin/LAE solutions; format: cell-based
Procedure: as §1, §2, §3, §4, §5, §6, §7, §8, §9, §10

Aspergillus niger = assay: MIC and synergy index of natamycin/LAE solutions; format: cell-based
Procedure: as §1, §2, §3, §4, §5, §6, §7, §8, §9, §10

Penicillium caseicolum = assay: MIC and synergy index of natamycin/LAE solutions; format: cell-based
Procedure: as §1, §2, §3, §4, §5, §6, §7, §8, §9, §10

[4] = tested on: Escherichia coli ATCC 8739; assay: MIC and synergy index of natamycin/LAE solutions; format: cell-based
Procedure: as §1, §2, §3, §4, §5, §6, §7, §8, §9, §10
(§11) The MIC values of natamycin alone (QN) reported in tables 5 to 8 corresponds to the maximum value studied. However, the real MIC of natamycin is higher than the maximum values studied (i.e.: 1024, 2048), accordingly the real SI should be lower than the SI reported in the tables.

[5] = tested on: Salmonella typhimurium ATCC 14028; assay: MIC and synergy index of natamycin/LAE solutions; format: cell-based
Procedure: as §1, §2, §3, §4, §5, §6, §7, §8, §9, §10, §11

[6] = tested on: Bacillus subtilis ATCC 6633; assay: MIC and synergy index of natamycin/LAE solutions; format: cell-based
Procedure: as §1, §2, §3, §4, §5, §6, §7, §8, §9, §10, §11

[7] = tested on: Listeria monocytogenes ATCC 15313; assay: MIC and synergy index of natamycin/LAE solutions; format: cell-based
Procedure: as §1, §2, §3, §4, §5, §6, §7, §8, §9, §10, §11

[8] = tested on: Penicillum casicolum, Rizopus, Aspergillus niger and Cladosporium cladosporioides; assay: Microbiocidal effect on inoculated cured cheese immersed in baths; format: cell-based; details: Lauric arginate 10% bath, 5 seconds immersion; inoculated 4 log CFU/g; 22° C.; up to 15 days; separate treatments; monohydrochloride
Procedure: Cured cheese was purchased from a local producer. The cheese contains cow milk, sheep milk, goat milk, starters, salt, rennet. The minimum amount of fat 55%/dry weight. Minimum 45 dry weight. Lauric arginate-from […] with purity 90% Ethyl-N^α-lauroyl-L-arginate HCl. Natamycin-95% in dry weight commercially available. Inoculums is a mix of Penicillum casicolum, Rizopus, Aspergillus niger and Cladosporium cladosporioides. Spores seeded in Sabouraud Chloramphenirol agar are incubated at 25° C. for 5 days. Spores are scraped of the agar with Ringer broth and diluted in Brain Heart Infusion broth. Brain Heart Infusion broth is incubated at 25° C. for 5 days. Diluted inoculums are mixed at the desire concentration in order to have the mix inoculums. […] The cheese was sliced and cut in equal portions of 5 centimeters of diameter by 5 millimeters wide in sterile surroundings. The portions of cheese were immersed in the bath for 5 seconds. They were dripped and dried for 5 minutes in a sterile surface. After this, each sample was inoculated with Penicillum casicolum, Rizopus, Aspergillus niger and Cladosporium cladosporioides at target concentration of 4 log CFU/g. Natamycin 95% concentrations: two differently concentrated baths of natamycin were prepared: 500 ppm and 1000 ppm. Lauric arginate concentrations: four differently concentrated baths of Lauric arginate were prepared: 0.5%, 1%, 5% and 10%. […]

[9] = Solubility of natamycin in aqueous solution with LAE; format: physicochemical; details: 10% of LAE in water
Source text: According to the dose level between natamycin and LAE, the total solubility of natamycin was observed. […] This low viscosity improves the application process of the solution in the product desired to be treated.

[10] = cited from earlier work
[11] = value is the maximum value studied, real MIC is higher

Structure (SMILES): CCCCCCCCCCCC(=O)N[C@@H](CCCN=C(N)N)C(=O)OCC.Cl [LAE, ethyl ester of the lauramide of the arginine monohydrochloride]
- QLAE: MIC of LAE alone [1]: 64
- QLAE: MIC of LAE alone [2]: 16
- QLAE: MIC of LAE alone [3]: 32
- QLAE: MIC of LAE alone (Rhizopus): 648
- QLAE: MIC of LAE alone (Aspergillus niger): 128
- QLAE: MIC of LAE alone (Penicillium caseicolum): 256
- QLAE: MIC of LAE alone [4]: 32
- QLAE: MIC of LAE alone [5]: 32
- QLAE: MIC of LAE alone [6]: 16
- QLAE: MIC of LAE alone [7]: 32
- inhibitory power / microbiocidal effect on cured cheese [8]: best treatment; also recorded: effective

- QN: MIC of natamycin alone [1]: 1
- QN: MIC of natamycin alone [2]: 2
- QN: MIC of natamycin alone [3]: 2.5
- QN: MIC of natamycin alone (Rhizopus): 4
- QN: MIC of natamycin alone (Aspergillus niger): 2
- QN: MIC of natamycin alone (Penicillium caseicolum): 1
- QN: MIC of natamycin alone [4, 11]: > 1024
- QN: MIC of natamycin alone [5, 11]: > 2048
- QN: MIC of natamycin alone [6, 11]: > 2048
- QN: MIC of natamycin alone [7, 11]: > 1024
- natamycin solubilised [9]: more than 1000 ppm
Structure (SMILES): C[C@@H]1C/C=C/C=C/C=C/C=C/[C@H](O[C@@H]2O[C@H](C)[C@@H](O)[C@H](N)[C@@H]2O)C[C@@H]2O[C@](O)(C[C@@H](O)C[C@H]3O[C@@H]3/C=C/C(=O)O1)C[C@H](O)[C@H]2C(=O)O [natamycin]
- solubility of natamycin in water [10]: 0.005-0.010 % (w/w)
